Assay type in all cases: in vivo
In experiment [1] the test system is Crabgrass (Digitaria sanguinalis). Briefly: Pre-Emergent Test, herbicidal effectiveness. Particulars: pre-emergence, 504 h, 33 micrograms per cm^2, 3 weeks, 0-to-100 scale, read-out: Herbicidal Effectiveness, % Control Pre, C. The method, then: (§1) An acetone solution of the test compound was prepared by mixing 750 mg of the compound, 220 mg of a nonionic surfactant and 25 ml of acetone. This solution was added to approximately 125 ml of water containing 156 mg of surfactant.
(§2) Seeds of the test vegetation were planted in a pot of soil and the test solution was sprayed uniformly onto the soil surface at a dose of 33 micrograms/cm^2. The pot was watered and placed in a greenhouse. […] At the end of this period, the herbicidal effectiveness of the compound was rated based on the physiological observations. A 0-to-100 scale was used, 0 representing no phytotoxicity, 100 representing complete kill.

The test system of experiment [2] is Lambsquarter (Chenopodium album). Briefly: Pre-Emergent Test, herbicidal effectiveness. Particulars: pre-emergence, 504 h, 33 micrograms per cm^2, 3 weeks, 0-to-100 scale, read-out: Herbicidal Effectiveness, % Control Pre, L. As for the experimental part: as §1, §2
Experiment [3] has as its system Mustard (Brassica arvensis). Briefly: Pre-Emergent Test, herbicidal effectiveness. As to conditions: pre-emergence, 504 h, 33 micrograms per cm^2, 3 weeks, 0-to-100 scale. As for the experimental part: as §1, §2
Experiment [4] deals with Pigweed (Amaranthus retroflexus). Put plainly: Pre-Emergent Test, herbicidal effectiveness. Particulars: pre-emergence, 504 h, 33 micrograms per cm^2, 3 weeks, 0-to-100 scale, read-out: Herbicidal Effectiveness, % Control Pre, P. The method, then:
as §1, §2

Experiment [5] deals with Watergrass (Echinochloa). Put plainly: Pre-Emergent Test, herbicidal effectiveness. As to conditions: pre-emergence, 504 h, 33 micrograms per cm^2, 3 weeks, 0-to-100 scale, read-out: Herbicidal Effectiveness, % Control Pre, W. The method, then: as §1, §2
Experiment [6] relates to Wild Oats (Avena fatua). Briefly: Pre-Emergent Test, herbicidal effectiveness. Particulars: pre-emergence, 504 h, 33 micrograms per cm^2, 3 weeks, 0-to-100 scale, read-out: Herbicidal Effectiveness, % Control Pre, O. The method, then:
as §1, §2

In experiment [7] the test system is Crabgrass (Digitaria sanguinalis). Briefly: Post-Emergent Test, herbicidal effectiveness. Particulars: post-emergence, 504 h, 33 micrograms per cm^2, 3 weeks, 0-to-100 scale, read-out: Herbicidal Effectiveness, % Control Post, C.
Experiment [8] relates to Lambsquarter (Chenopodium album). Put plainly: Post-Emergent Test, herbicidal effectiveness. Particulars: post-emergence, 504 h, 33 micrograms per cm^2, 3 weeks, 0-to-100 scale, read-out: Herbicidal Effectiveness, % Control Post, L.
The subject of experiment [9] is Mustard (Brassica arvensis). Briefly: Post-Emergent Test, herbicidal effectiveness. As to conditions: post-emergence, 504 h, 33 micrograms per cm^2, 3 weeks, 0-to-100 scale.
Experiment [10] relates to Pigweed (Amaranthus retroflexus). Put plainly: Post-Emergent Test, herbicidal effectiveness. As to conditions: post-emergence, 504 h, 33 micrograms per cm^2, 3 weeks, 0-to-100 scale, read-out: Herbicidal Effectiveness, % Control Post, P.
For experiment [11], the system named is Watergrass (Echinochloa). Briefly: Post-Emergent Test, herbicidal effectiveness. As to conditions: post-emergence, 504 h, 33 micrograms per cm^2, 3 weeks, 0-to-100 scale, read-out: Herbicidal Effectiveness, % Control Post, W.
Experiment [12] relates to Wild Oats (Avena fatua). Briefly: Post-Emergent Test, herbicidal effectiveness. As to conditions: post-emergence, 504 h, 33 micrograms per cm^2, 3 weeks, 0-to-100 scale, read-out: Herbicidal Effectiveness, % Control Post, O.

Turning to `CSc1nnc(CNc2c(C)cccc2C)n1C` [Compound 14A], the pest or weed control at 33 µg/cm2 (in experiment [1]; in experiment [2]; in experiment [3]; in [4]; in the experiment with Watergrass (Echinochloa) [5]; in the experiment on Wild Oats (Avena fatua) [6]) was 0% throughout. Also, the pest or weed control at 5000 µg/mL, 33 µg/cm2 (in [7]; in experiment [8]; in experiment [9]; in [10]; with Watergrass (Echinochloa) [11]; with Wild Oats (Avena fatua) [12]) was 0% throughout.
With `CSc1nnc(CN(C(=O)CCl)c2c(C)cccc2C)n1C` [Compound 14B], the pest or weed control at 33 µg/cm2 in experiment [1] came out at 90%; in [2], 0%; in experiment [3], 0%; in experiment [4], 0%; in the experiment with Watergrass (Echinochloa) [5] it was 100%; with Wild Oats (Avena fatua) [6] it was 10%. In addition, the pest or weed control at 5000 µg/mL, 33 µg/cm2 (in experiment [7]; in experiment [8]; in experiment [9]; in experiment [10]; in the experiment on Watergrass (Echinochloa) [11]; with Wild Oats (Avena fatua) [12]) was 0% throughout.
With `CCc1nnc(CNc2c(C)cccc2CC)[nH]1` [Compound 15A], the pest or weed control at 33 µg/cm2 (in experiment [1]; in experiment [2]; in [3]; in [4]; in the experiment with Watergrass (Echinochloa) [5]; with Wild Oats (Avena fatua) [6]) was 0% in each case. The pest or weed control at 5000 µg/mL, 33 µg/cm2 (in experiment [7]; in experiment [8]; in experiment [9]; in experiment [10]; with Watergrass (Echinochloa) [11]; in the experiment with Wild Oats (Avena fatua) [12]) was 0% throughout.
Consider `CCc1nnc(CN(C(=O)CCl)c2c(C)cccc2CC)[nH]1` [Compound 15B], for which the pest or weed control at 33 µg/cm2 (in experiment [1]; in [2]; in experiment [3]; in [4]; in the experiment on Watergrass (Echinochloa) [5]; with Wild Oats (Avena fatua) [6]) was 100% in each case. The pest or weed control at 5000 µg/mL, 33 µg/cm2 in experiment [7] turned out to be 75%; in experiment [8], 35%; in experiment [9], 35%; in [10], 30%; in the experiment with Watergrass (Echinochloa) [11] it was 80%; in the experiment with Wild Oats (Avena fatua) [12] it was 55%.
In the case of `CCc1cccc(C)c1NCc1nnc(C(C)C)[nH]1` [Compound 16A], the pest or weed control at 33 µg/cm2 (in experiment [1]; in experiment [2]; in experiment [3]; in experiment [4]; in the experiment on Watergrass (Echinochloa) [5]; in the experiment with Wild Oats (Avena fatua) [6]) was 0% in each case. For the same compound, the pest or weed control at 5000 µg/mL, 33 µg/cm2 (in experiment [7]; in experiment [8]; in [9]; in experiment [10]; in the experiment on Watergrass (Echinochloa) [11]; in the experiment with Wild Oats (Avena fatua) [12]) was 0% each time.
Turning to `CCc1cccc(C)c1N(Cc1nnc(C(C)C)[nH]1)C(=O)CCl` [Compound 16B], the pest or weed control at 33 µg/cm2 in experiment [1] was determined as 100%; in experiment [2], 100%; in experiment [3], 95%; in experiment [4], 95%; with Watergrass (Echinochloa) [5] it was 100%; with Wild Oats (Avena fatua) [6], 100%. In addition, the pest or weed control at 5000 µg/mL, 33 µg/cm2 in experiment [7] came to 70%; in experiment [8], 35%; in experiment [9] it was 40%; in [10], 40%; in the experiment with Watergrass (Echinochloa) [11] it was 75%; in the experiment on Wild Oats (Avena fatua) [12], 70%.
As for `CCc1cccc(C)c1NCc1nnc[nH]1` [Compound 17A], the pest or weed control at 33 µg/cm2 (in experiment [1]; in experiment [2]; in experiment [3]; in experiment [4]; in the experiment with Watergrass (Echinochloa) [5]; with Wild Oats (Avena fatua) [6]) was 0% in each case. The pest or weed control at 5000 µg/mL, 33 µg/cm2 (in experiment [7]; in experiment [8]; in [9]; in experiment [10]; in the experiment on Watergrass (Echinochloa) [11]; with Wild Oats (Avena fatua) [12]) was 0% each time.
On to `CCc1cccc(C)c1N(Cc1nnc[nH]1)C(=O)CCl` [Compound 17B], for which the pest or weed control at 33 µg/cm2 was 100% in experiment [1]; 100% in experiment [2]; 90% in experiment [3]; 95% in experiment [4]; 100% in the experiment with Watergrass (Echinochloa) [5]; 100% in the experiment on Wild Oats (Avena fatua) [6]. For the same compound, the pest or weed control at 5000 µg/mL, 33 µg/cm2 in experiment [7] is 75%; in [8] it was 65%; in experiment [9], 75%; in experiment [10], 65%; with Watergrass (Echinochloa) [11] it was 75%; with Wild Oats (Avena fatua) [12], 60%.
Turning to `Cc1cccc(C)c1NCc1nnc(S)[nH]1` [Compound 18A], the pest or weed control at 33 µg/cm2 (in experiment [1]; in experiment [2]; in [3]; in experiment [4]; with Watergrass (Echinochloa) [5]; in the experiment on Wild Oats (Avena fatua) [6]) was 0% throughout. For the same compound, the pest or weed control at 5000 µg/mL, 33 µg/cm2 (in experiment [7]; in experiment [8]; in experiment [9]; in [10]; in the experiment on Watergrass (Echinochloa) [11]; in the experiment with Wild Oats (Avena fatua) [12]) was 0% in each case.
Regarding `Cc1cccc(C)c1N(Cc1nnc(S)[nH]1)C(=O)CCl` [Compound 18B], the pest or weed control at 33 µg/cm2 (in experiment [1]; in experiment [2]; in experiment [3]; in experiment [4]; with Watergrass (Echinochloa) [5]; in the experiment on Wild Oats (Avena fatua) [6]) was 0% in each case. The pest or weed control at 5000 µg/mL, 33 µg/cm2 (in [7]; in experiment [8]; in experiment [9]; in experiment [10]; in the experiment on Watergrass (Echinochloa) [11]; in the experiment on Wild Oats (Avena fatua) [12]) was 0% throughout.

The values are drawn from patent US4243408A, “Herbicidal N-triazolylmethyl-substituted alpha-haloacetanilide” (Chevron Research Company, priority 1978, dated 1981).
